# According to BindingDB's records for doi:10.1021/jm00100a013 (Medical University of South Carolina, 1992):
# Target: Folylpolyglutamate synthase (Sus scrofa)
# Experiment: Inhibitory activity against hog liver Folyl polyglutamate synthetase (FPGS)
row,Ki,Compound
1,8.8 nM,NCCCC(NC(=O)c1ccc(NCc2ccc3nc(N)[nH]c(=O)c3c2C(F)(F)F)cc1)C(=O)O (centres undefined)
2,11 nM,NCCCC(NC(=O)c1ccc(CNc2ccc3nc(N)[nH]c(=O)c3c2C(F)(F)F)cc1)C(=O)O (centres undefined)
3,900 nM,NCCCC(NC(=O)c1ccc(CNc2ccc3nc(N)[nH]c(=O)c3c2F)cc1)C(=O)O (centres undefined)
4,500 nM,NCCCC(NC(=O)c1ccc(CNc2ccc3nc(N)[nH]c(=O)c3c2Cl)cc1)C(=O)O (centres undefined)
